# Measured values taken from US20110281945A1, “GASTRIC ACID SECRETION INHIBITOR, AND POTASSIUM CHANNEL INHIBITOR” (priority 2009, published 2011).
# Assays:
# Cl^− secretion = experiment: Short-circuit current (Isc) measurement with Ussing chambers, large-intestinal (cecum) mucosa specimen; assay type: cell-based, mouse
# Description: A mouse was killed by cervical vertebra dislocation. After abdominal incision, the cecum was extracted. The boundary parts of the cecum with the small intestine and the large intestine were cut to extract the cecum. The cecum was cut open with scissors into a sheet. In order to completely remove the contents, the cecum was pinched with tweezers and washed with replacement fluid. Replacement fluid was placed in a petri dish covered with rubber, and the cecum was attached thereon with the serosa side up. The muscular layer was separated using tweezers while constantly aerating the replacement fluid in the petri dish with 95% O2/5% CO2 to prepare a specimen composed of the mucosa and the submucosa. This specimen was divided into four pieces for use in the experiment.
# The mucosa specimen was placed between two Ussing-type chambers each having a window with an area of 0.2 cm^2 and containing 5 mL of replacement fluid. For the measurement of the electrical potential difference, a pair of calomel electrodes was connected to both chambers through 1 M KCl/2% agar salt bridges. For energization, Ag/AgCl electrodes connected through 1 M NaCl/2% agar salt bridges were installed. These electrodes were connected to a voltage clamp apparatus, and the short-circuit current (Isc) was measured. As for Isc, current flowing from the mucosa side to the serosa side was determined as being positive.
# Tetrodotoxin (TTX) was administered to the serosa side to block the nerve, and then forskolin (FK) was administered to the serosa side. […] At least part of this cAMP-dependent increase in Isc is attributable to the activation of a Cl^− secretion mechanism.
# Subsequently, the compound 1 was administered to the serosa side to decrease Isc (to suppress Cl^− secretion). […] Lastly, a Na^+.K^−.2Cl cotransporter inhibitor (which inhibits Cl^− secretion) was administered to the serosa side to observe a slight decrease in Isc.
# gastric acid secretion = experiment: Gastric acid secretion measurement with Ussing chambers, stomach specimen stimulated with histamine; assay type: cell-based, mouse; conditions: for suppression of the gastric acid secretion rate: versus ground state; for Gastric acid secretion rate: histamine 1 mM on serosa side, 37° C.
# Experimental: A mouse was killed by cervical vertebra dislocation. After abdominal incision, the stomach was extracted. The gastric acid secretion portion was cut out, washed with replacement fluid, and divided into two pieces.
# The specimen was placed between two chambers facing each other and each having a window with an area of 0.2 cm^2 and containing 10 mL of replacement fluid. Decreases in pH of the replacement fluid in the chamber on the lumen side were successively measured using a pH electrode at 37° C. The gastric acid secretion rate was calculated from the decrease in pH measured after completion of the experiment and the previously measured buffer capacity of the replacement fluid. The experiment was conducted by previously administering histamine (1 mM) to the replacement fluid on the serosa side for stimulating gastric acid secretion.
# L-Menthol and compound 1 were administered to the replacement fluid on the lumen side so that the final concentrations were 50 μM and 100 μM, respectively. The administration was performed using stock solutions each having a concentration of 1000 times that of the target final concentration and using DMSO as a solvent. Compound 1 and 1-menthol were administered at 20 minutes and at 14 minutes, respectively, from the start of the experiment.
smiles,measurement,setting,value
"CC1CCC(C(C)C)C(OCC(C)(O)CO)C1 (stereo not shown) [Compound 1, 2-methyl-3-(menthoxy)propane-1,2-diol]",change in Isc (Cl^− secretion),"Cl^− secretion; administered to serosa side after TTX and forskolin (Example 1, FIG. 3)",decrease Isc
same,suppression of the gastric acid secretion rate,gastric acid secretion; 100 μM,75%
same,Gastric acid secretion rate,"gastric acid secretion; Example 4, 100 μM on lumen side",0.43 micro Eq/cm^2/h
CCS(=O)(=O)N(C)[C@H]1c2cc(C#N)ccc2OC(C)(C)[C@@H]1O (racemic) [chromanol 293B],Isc-suppressing reaction,"Cl^− secretion; chromanol 293B administered first, before compound 1 (Example 2, FIG. 4)",can be observed
CC(C)[C@@H]1CC[C@@H](C)C[C@H]1O [l-Menthol],decrease in Isc,"Cl^− secretion; chromanol 293B administered in advance (Examples 2 and 3, FIG. 4 and 5)",did not decrease the Isc
same,suppression of the gastric acid secretion rate,gastric acid secretion; 50 μM,57%
same,Gastric acid secretion rate,"gastric acid secretion; Example 5, 50 μM on lumen side",0.64 micro Eq/cm^2/h
